This note sets out measurements from patent US11427548B2 (Arvinas Operations, Inc., priority 2015, dated 2022).

The assay deals with T1, Androgen Receptor (Homo sapiens, UniProt P10275).
T1 construct: endogenous in cells; host or cells: VCaP cells
T1 sequence (P10275 1-920): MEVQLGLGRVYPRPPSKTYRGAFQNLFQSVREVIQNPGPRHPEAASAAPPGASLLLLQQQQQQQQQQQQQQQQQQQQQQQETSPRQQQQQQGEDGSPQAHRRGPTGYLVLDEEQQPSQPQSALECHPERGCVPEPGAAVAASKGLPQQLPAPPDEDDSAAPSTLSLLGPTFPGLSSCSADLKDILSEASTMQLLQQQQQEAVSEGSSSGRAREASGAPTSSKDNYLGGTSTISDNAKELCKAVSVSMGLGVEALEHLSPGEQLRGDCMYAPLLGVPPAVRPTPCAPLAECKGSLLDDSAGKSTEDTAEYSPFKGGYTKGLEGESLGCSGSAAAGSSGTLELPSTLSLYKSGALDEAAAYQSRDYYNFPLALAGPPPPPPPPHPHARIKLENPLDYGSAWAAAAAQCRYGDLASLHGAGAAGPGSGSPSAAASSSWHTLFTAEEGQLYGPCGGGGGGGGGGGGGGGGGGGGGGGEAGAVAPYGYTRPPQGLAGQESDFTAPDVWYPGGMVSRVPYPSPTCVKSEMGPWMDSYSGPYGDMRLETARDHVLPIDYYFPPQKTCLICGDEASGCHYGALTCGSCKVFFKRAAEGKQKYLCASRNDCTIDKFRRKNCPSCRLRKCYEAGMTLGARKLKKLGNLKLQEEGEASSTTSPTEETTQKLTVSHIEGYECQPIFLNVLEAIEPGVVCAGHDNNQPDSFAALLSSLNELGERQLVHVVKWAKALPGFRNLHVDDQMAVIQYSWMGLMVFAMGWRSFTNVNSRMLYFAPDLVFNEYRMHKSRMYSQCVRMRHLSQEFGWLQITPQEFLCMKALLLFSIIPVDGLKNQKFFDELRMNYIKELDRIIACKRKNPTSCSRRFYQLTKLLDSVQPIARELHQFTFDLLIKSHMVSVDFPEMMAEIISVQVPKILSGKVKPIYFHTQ
The assay can be described thus: Androgen Receptor ELISA assay (PathScan AR ELISA) in VCaP cells: AR degradation, Dmax and DC50. It is filed as cell-based. Summed up: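 VCaP cells in phenol red-free RPMI with 5% charcoal-stripped FBS were grown at least 3 days, then given compound as 7 half-log doses in 0.1% DMSO with 0.1 nM R1881 for 24 h. Lysates went into a sandwich AR ELISA with TMB read at 450 nm.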
On the technique in general: ELISA stands for enzyme-linked immunosorbent assay.

Where [1] appears, read: read-out: VCaP DC50; VCaP cells; Table 34.
Setting [2] is: VCaP cells; Table 34; read-out: VCaP DC50.
Where [3] appears, read: VCaP, VCaP cells; Table 34; read-out: VCaP Dmax (%).

SMILES strings stand for the structures. Where two headings read alike, the source gives them in different places.

On to `Cc1ncsc1-c1ccc(CNC(=O)[C@@H]2C[C@@H](O)CN2C(=O)[C@@H](NC(=O)CN(C)CCCCOCCCOc2ccc(N3C(=S)N(c4ccc(C#N)c(C(F)(F)F)c4)C(=O)C3(C)C)cc2)C(C)(C)C)cc1` [Example 317], for which the greatest degradation seen (Dmax) – broadly, the largest share of the target that was removed – (VCaP, read-out: VCaP Dmax (%)) lay in the range of 26 to 50%. Moreover, the DC50 (in general, the midpoint of the concentration-degradation curve) under setting [1] lay in the range of 51 to 500 nM.
For `Cc1ncsc1-c1ccc(CNC(=O)[C@@H]2C[C@@H](O)CN2C(=O)[C@@H](NC(=O)COCCC2CCN(CCOc3ccc(N4C(=S)N(c5ccc(C#N)c(C(F)(F)F)c5)C(=O)C4(C)C)cc3)CC2)C(C)(C)C)cc1` [Example 318] the same measures were 26 to 50% and 51 to 500 nM.
For the molecule `Cc1ncsc1-c1ccc(CNC(=O)[C@@H]2C[C@@H](O)CN2C(=O)[C@@H](NC(=O)COCC#CCOCCOc2ccc(N3C(=S)N(c4ccc(C#N)c(C(F)(F)F)c4)C(=O)C3(C)C)cc2)C(C)(C)C)cc1` [Example 319], the Dmax (VCaP, read-out: VCaP Dmax (%)) lay within 26 to 50%. Also, under setting [1], the DC50 was less than 50 nM.
For `Cc1ncsc1-c1ccc(CNC(=O)[C@@H]2C[C@@H](O)CN2C(=O)[C@@H](NC(=O)COCCCCOCCCCOc2cccc(N3C(=S)N(c4ccc(C#N)c(C(F)(F)F)c4)C(=O)C3(C)C)c2)C(C)(C)C)cc1` [Example 320] the same measures were 26 to 50% and less than 50 nM.
On the same counts, the results for `Cc1ncsc1-c1ccc(CNC(=O)[C@@H]2C[C@@H](O)CN2C(=O)[C@@H](NC(=O)COCCCOCCCCOc2cccc(N3C(=S)N(c4ccc(C#N)c(C(F)(F)F)c4)C(=O)C3(C)C)c2)C(C)(C)C)cc1` [Example 321] are 26 to 50% and less than 50 nM.
Consider `COc1cc(N2C(=O)C(C)(C)N(c3ccc(OCCOc4ccc(OCC(=O)N[C@H](C(=O)N5C[C@H](O)C[C@H]5C(=O)NCc5ccc(-c6scnc6C)cc5)C(C)(C)C)cc4)c(F)c3)C2=S)ccc1C#N` [Example 323], for which the DC50 under setting [2] was less than 50 nM. Moreover, under setting [3], the Dmax was in the range of 51 to 70%.
In the case of `Cc1ncsc1-c1ccc(CNC(=O)[C@@H]2C[C@@H](O)CN2C(=O)[C@@H](NC(=O)CCN2CCC(OCCOc3ccc(N4C(=S)N(c5ccc(C#N)c(C(F)(F)F)c5)C(=O)C4(C)C)cc3)CC2)C(C)(C)C)cc1` [Example 324], the Dmax (VCaP, read-out: VCaP Dmax (%)) was in the range of 26 to 50%. Besides, the DC50 under setting [1] was 51 to 500 nM.
On the same counts, the results for `Cc1ncsc1-c1ccc(CNC(=O)[C@@H]2C[C@@H](O)CN2C(=O)[C@@H](NC(=O)COC/C=C\COCCCCOc2ccc(N3C(=S)N(c4ccc(C#N)c(C(F)(F)F)c4)C(=O)C3(C)C)cc2)C(C)(C)C)cc1` [Example 325] are 26 to 50% and less than 50 nM.
Regarding `Cc1ncsc1-c1ccc(CNC(=O)[C@@H]2C[C@@H](O)CN2C(=O)[C@H](C(C)C)N2CC(OCCCOCCCOc3ccc(N4C(=S)N(c5ccc(C#N)c(C(F)(F)F)c5)C(=O)C4(C)C)cc3)=CC2=O)cc1` [Example 329], the Dmax (VCaP, read-out: VCaP Dmax (%)) was in the range of 26 to 50%. For the same molecule, the DC50 under setting [1] is less than 50 nM.
Turning to `Cc1ncsc1-c1ccc(CNC(=O)[C@@H]2C[C@@H](O)CN2C(=O)[C@@H](NC(=O)COCCCOCCCCNc2ccc(N3C(=S)N(c4ccc(C#N)c(C(F)(F)F)c4)C(=O)C3(C)C)cc2)C(C)(C)C)cc1` [Example 333], the greatest degradation seen (Dmax) (VCaP, read-out: VCaP Dmax (%)) lay within 51 to 70%. The DC50 under setting [1] is less than 50 nM.
Take `CC(C)(C)[C@H](NC(=O)COCCCOCCCCOc1ccc(N2C(=S)N(c3ccc(C#N)c(Br)c3)C(=O)C2(C)C)cc1F)C(=O)N1C[C@H](O)C[C@H]1C(=O)NCc1ccc(-c2cnco2)cc1` [Example 334]: under setting [2], the DC50 is less than 50 nM. The maximal degradation (Dmax) under setting [3] was more than 71%.
Consider `CC(C)(C)[C@H](NC(=O)COCCCOCCCCOc1ccc(N2C(=S)N(c3ccc(C#N)c(Cl)c3)C(=O)C2(C)C)c(F)c1)C(=O)N1C[C@H](O)C[C@H]1C(=O)NCc1ccc(-c2cnco2)cc1` [Example 336], for which the Dmax (VCaP, read-out: VCaP Dmax (%)) is more than 71%. Besides, the DC50 under setting [1] is less than 50 nM.
Consider `CC(C)(C)[C@H](NC(=O)COCCCOCCCCOc1ccc(N2C(=S)N(c3ccc(C#N)c(Cl)c3)C(=O)C2(C)C)cc1)C(=O)N1C[C@H](O)C[C@H]1C(=O)NCc1ccc(-c2cnco2)cc1` [Example 337], for which the Dmax (VCaP, read-out: VCaP Dmax (%)) is more than 71%. In addition, under setting [1], the half-maximal degradation concentration (DC50) was less than 50 nM.
With `Cc1ncoc1-c1ccc(CNC(=O)[C@@H]2C[C@@H](O)CN2C(=O)[C@@H](NC(=O)COCCCOCCCCOc2ccc(N3C(=S)N(c4cnc(C#N)c(Cl)c4)C(=O)C3(C)C)cc2)C(C)(C)C)cc1` [Example 338], the DC50 under setting [2] was less than 50 nM. Further, the Dmax under setting [3] is 51 to 70%.
On the same counts, the results for `CC(C)(C)[C@H](NC(=O)COCCCCCOCCn1cc(C(=O)N[C@H]2C(C)(C)[C@H](Oc3ccc(C#N)c(Cl)c3)C2(C)C)cn1)C(=O)N1C[C@H](O)C[C@H]1C(=O)NCc1ccc(-c2cncs2)cc1` [Example 339] are less than 50 nM and more than 71%.
As for `CC(C)(C)[C@H](NC(=O)COCCCOCCCCCOc1ccc(N2C(=S)N(c3ccc(C#N)c(Cl)c3)C(=O)C2(C)C)cc1)C(=O)N1C[C@H](O)C[C@H]1C(=O)NCc1ccc(-c2cnco2)cc1` [Example 345], the Dmax (VCaP, read-out: VCaP Dmax (%)) lay within 51 to 70%. Moreover, the DC50 under setting [1] was less than 50 nM.
On the same counts, the results for `CC(C)(C)[C@H](NC(=O)COCCCCOCCCCOc1ccc(N2C(=S)N(c3ccc(C#N)c(Cl)c3)C(=O)C2(C)C)cc1)C(=O)N1C[C@H](O)C[C@H]1C(=O)NCc1ccc(-c2cnco2)cc1` [Example 346] are 51 to 70% and less than 50 nM.
As to `CC(C)(C)[C@H](NC(=O)COCCCCOCCn1cc(C(=O)N[C@H]2C(C)(C)[C@H](Oc3ccc(C#N)c(Cl)c3)C2(C)C)cn1)C(=O)N1C[C@H](O)C[C@H]1C(=O)NCc1ccc(-c2cncs2)cc1` [Example 347], under setting [2], the DC50 is less than 50 nM. Also, the maximal degradation (Dmax) under setting [3] lay in the range of 51 to 70%.
For the molecule `Cc1ncsc1-c1ccc([C@H](C)NC(=O)[C@@H]2C[C@@H](O)CN2C(=O)[C@@H](NC(=O)COCCCOCCCCOc2ccc(N3C(=S)N(c4cnc(C#N)c(C(F)(F)F)c4)C(=O)C3(C)C)cc2)C(C)(C)C)cc1` [Example 365], under setting [2], the DC50 is less than 50 nM. For the same molecule, under setting [3], the Dmax was more than 71%.
Take `Cc1ncsc1-c1ccc(CNC(=O)[C@@H]2C[C@@H](O)CN2C(=O)[C@H](C)NC(=O)COCCCOCCCCOc2ccc(N3C(=S)N(c4ccc(C#N)c(C(F)(F)F)c4)C(=O)C3(C)C)cc2)cc1` [Example 366]: under setting [1], the DC50 is less than 50 nM.
As to `CC(C)(C)[C@H](NC(=O)COCCCOCCCCOc1ccc(N2C(=S)N(c3ccc(C#N)c(C(F)(F)F)c3)C(=O)C2(C)C)cc1)C(=O)N1C[C@H](O)C[C@H]1C(=O)NCc1ccc(-c2cnco2)c(F)c1` [Example 367], the Dmax (VCaP, read-out: VCaP Dmax (%)) lay in the range of 51 to 70%. In addition, the DC50 under setting [1] was less than 50 nM.
`CC(C)(C)[C@H](NC(=O)COCCCOCCCCOc1ccc(N2C(=S)N(c3cc(Cl)c(C#N)cc3F)C(=O)C2(C)C)cc1F)C(=O)N1C[C@H](O)C[C@H]1C(=O)NCc1ccc(-c2cnco2)cc1` [Example 368]: under setting [1], the DC50 is less than 50 nM.
Still for that read-out and setting: next, `CC(C)(C)[C@H](NC(=O)COCCCOCCCCOc1ccc(N2C(=S)N(c3cc(Cl)c(C#N)cc3F)C(=O)C2(C)C)cc1)C(=O)N1C[C@H](O)C[C@H]1C(=O)NCc1ccc(-c2cnco2)cc1` [Example 369]: less than 50 nM.
With `CC(C)(C)[C@H](NC(=O)COCCCOCCCCOc1ccc(N2C(=S)N(c3ccc(C#N)c(C(F)(F)F)c3)C(=O)C2(C)C)cc1)C(=O)N1C[C@H](O)C[C@H]1C(=O)NCc1ccc(-c2ocnc2F)cc1` [Example 370], the Dmax (VCaP, read-out: VCaP Dmax (%)) was 26 to 50%. Further, under setting [1], the DC50 was less than 50 nM.
In the case of `CC(C)(C)[C@H](NC(=O)COc1ccc(OCCOc2ccc(N3C(=S)N(c4cnc(C#N)c(C(F)(F)F)c4)C(=O)C3(C)C)cc2)cc1)C(=O)N1C[C@H](O)C[C@H]1C(=O)NCc1ccc(-c2cnco2)cc1` [Example 371], the DC50 under setting [2] is less than 50 nM. Under setting [3], the Dmax is more than 71%.
With `Cc1ncsc1-c1ccc([C@H](C)NC(=O)[C@@H]2C[C@@H](O)CN2C(=O)[C@@H](NC(=O)COCCCCOCCCCOc2ccc(N3C(=S)N(c4ccc(C#N)c(C(F)(F)F)c4)C(=O)C3(C)C)cc2)C(C)(C)C)cc1` [Example 373], the Dmax (VCaP, read-out: VCaP Dmax (%)) is 51 to 70%. The DC50 under setting [1] was less than 50 nM.
For `Cc1ncsc1-c1ccc(CNC(=O)[C@@H]2C[C@@H](O)CN2C(=O)[C@@H](NC(=O)C(C)Oc2ccc(OCCOc3ccc(N4C(=S)N(c5ccc(C#N)c(C(F)(F)F)c5)C(=O)C4(C)C)cc3)cc2)C(C)(C)C)cc1` (some centres unmarked) [Example 374] the same measures were 26 to 50% and less than 50 nM.
For `CC(C)(C)[C@H](NC(=O)COCCCOCCCCOc1ccc(N2C(=S)N(c3ccc(C#N)c(C(F)(F)F)c3)C(=O)C2(C)C)cc1)C(=O)N1C[C@H](O)C[C@H]1C(=O)NCc1ccc(-c2cn[nH]c2)cc1` [Example 376] the same measures were 51 to 70% and less than 50 nM.
